Our source for the mortality values is patent US9549560B2, “Pesticidal compositions and related methods” (DOW AGROSCIENCES LLC, priority 2013, dated 2017).

Test [1] relates to Green Peach Aphid (Myzus persicae). In words: Bioassay for Green Peach Aphid (GPA) (MYZUPE), foliar spray on cabbage seedlings. Type of test: in vivo. The settings on record: 72 h, 200 ppm foliar spray, graded after three days, Abbott corrected % control, read-out: % Control (or Mortality) rating, GPA. The method, then: Cabbage seedlings grown in 3-inch pots, with 2-3 small (3-5 cm) true leaves, were used as test substrate. The seedlings were infested with 20-50 GPA (wingless adult and nymph stages) one day prior to chemical application. Four pots with individual seedlings were used for each treatment. Test compounds (2 mg) were dissolved in 2 mL of acetone/methanol (1:1) solvent, forming stock solutions of 1000 ppm test compound. The stock solutions were diluted 5× with 0.025% Tween 20 in H2O to obtain the solution at 200 ppm test compound. A hand-held aspirator-type sprayer was used for spraying a solution to both sides of […] leaves until runoff. Reference plants (solvent check) were sprayed with the diluent only containing 20% by volume of acetone/methanol (1:1) solvent. Treated plants were held in a holding room for three days at approximately 25° C. and ambient relative humidity (RH) prior to grading. Evaluation was conducted by counting the number of live aphids per plant under a microscope. Percent control was measured by using Abbott's correction formula (W. S. Abbott, “A Method of Computing the Effectiveness of an Insecticide,” J. Econ. Entomol. 18 (1925), pp. 265-267) as follows. Corrected % Control=100*(X−Y)/X
X=No. of live aphids on solvent check plants and
Y=No. of live aphids on treated plants
(§1) Biological Data for Green Peach Aphid (GPA) (MYZUPE) and Sweetpotato Whitefly-crawler (WF) (BEMITA)” (See Table Section).

Test [2] deals with Sweetpotato Whitefly-Crawler (Bemisia tabaci). In words: Insecticidal test for Sweetpotato Whitefly-Crawler (WF) (BEMITA) in foliar spray assay on cotton plants. The test is classed as in vivo. The note with it: 216 h, 200 ppm foliar spray, graded after 9 days, Abbott corrected % control, read-out: % Control (or Mortality) rating, WF. The method, then:
Cotton plants (Gossypium hirsutum) grown in 3-inch pots, with 1 small (4-5 cm) true leaves, were used as test substrate. The plants were infested with 200-400 whitefly eggs 4-5 days prior to chemical application. Four pots with individual plants were used for each treatment. Test compounds (2 mg) were dissolved in 1 mL of acetone solvent, forming stock solutions of 2000 ppm test compound. The stock solutions were diluted 10× with 0.025% Tween 20 in H2O (diluents) to obtain the solution at 200 ppm test compound. A hand-held aspirator-type sprayer was used for spraying a solution to both sides of cotton leaves until runoff. Reference plants (solvent check) were sprayed with the diluent only containing 10% by volume of acetone solvent. Treated plants were held in a holding room for 9 days at approximately 25° C. and ambient relative humidity (RH) prior to grading. Evaluation was conducted by counting the number of live 3-4 nymph stage per plant under a microscope. Percent control was measured by using Abbott's correction formula (W. S. Abbott, “A Method of Computing the Effectiveness of an Insecticide,” J. Econ. Entomol. 18 (1925), pp. 265-267) as follows. Corrected % Control=100*(X−Y)/X
X=No. of live nymphs on solvent check plants and
Y=No. of live nymphs on treated plants.
as §1

As usually defined, the mortality is the percentage killed. As for `CCN(C(=O)CC[S+]([O-])CC1CC1(F)F)c1cn(-c2ccc[n+]([O-])c2)nc1Cl` (stereo not shown) [Compound P49, 3-(3-Chloro-4-(3-(((2,2-difluorocyclopropyl)methyl)sulfinyl)-N-ethylpropanamido)-1H-pyrazol-1-yl)pyridine 1-oxide], the mortality at 200 ppm in test [1] and in test [2] was 80 to 100% each time.
With `CCN(C(=O)C(C)CSCCC(F)(F)F)c1cn(-c2cc(F)c[n+]([O-])c2)nc1Cl` (stereo not shown) [FA2, 3-(3-Chloro-4-(N-ethyl-2-methyl-3-((3,3,3-trifluoropropyl)thio)propanamido)-1H-pyrazol-1-yl)-5-fluoropyridine 1-oxide], the mortality at 200 ppm in test [1] and in test [2] was 80 to 100% in each case.
As to `CCN(C(=O)CCSCCCC(F)(F)F)c1cn(-c2cc(F)c[n+]([O-])c2)nc1Cl` [Compound P98, 3-(3-Chloro-4-(N-ethyl-3-((4,4,4-trilluorobutyl)thio)propanamido)-1H-pyrazol-1-yl)-5-fluoropyridine 1-oxide], the mortality at 200 ppm in test [1] was 0 to 80%; in test [2], 80 to 100%.
For the molecule `CCN(C(=O)C(C)S(C)(=O)=O)c1cn(-c2ccc[n+]([O-])c2)nc1Cl` (stereo not shown) [FA13, 3-(3-chloro-4-(N-ethyl-2-(methylsulfonyl)propanamido)-1H-pyrazol-1-yl)pyridine 1-oxide], the mortality at 200 ppm in test [1] was 80 to 100%.
Still for that read-out and setting: then `CC(C(=O)N(CC1CC1)c1cn(-c2ccc[n+]([O-])c2)nc1Cl)S(C)(=O)=O` (stereo not shown) [FA14, 3-(3-chloro-4-(N-(cyclopropylmethyl)-2-(methylsulfonyl)propanamido)-1H-pyrazol-1-yl)pyridine 1-oxide], with 80 to 100%.
Consider `CCN(C(=O)C(C)CSC)c1cn(-c2ccc[n+]([O-])c2)nc1Cl` (stereo not shown) [Compound F10, 3-(3-Chloro-4-(N-ethyl-2-methyl-3-(methylthio)propajamido)-1H-pyrazol-1-yl)pyridine 1-oxide], for which the mortality at 200 ppm in test [1] and in test [2] was 80 to 100% each time.
As to `CCN(C(=O)C(C)CS(C)(=O)=O)c1cn(-c2ccc[n+]([O-])c2)nc1C` (stereo not shown) [Compound F4, 3-(4-(N-ethyl-2-methyl-3-(methylsulfonyl)propanamido)-3-methyl-1H-pyrazol-1-yl)pyridine-1-oxide], the mortality at 200 ppm in test [1] and in test [2] was 80 to 100% in each case.
With `CCN(C(=O)C(C)CSCCC(F)(F)F)c1cn(-c2ccc[n+]([O-])c2)nc1Cl` (stereo not shown) [FA3, 3-(3-Chloro-4-(N-ethyl-2-methyl-3-((3,3,3-trifluoropropyl)thio)propanamido)-1H-pyrazol-1-yl)pyridine 1-oxide], the mortality at 200 ppm in test [1] and in test [2] was 80 to 100% throughout.
For the molecule `C#CCN(C(=O)CCSCCC(F)(F)F)c1cn(-c2ccc[n+]([O-])c2)nc1Cl` [Compound P9, 3-(3-Chloro-4-(N-(prop-2-yn-1-yl)-3-((3,3,3-trifluoropropyl)thio)propanamido)-1H-pyrazol-1-yl)pyridine 1-oxide], the mortality at 200 ppm in test [1] and in test [2] was 80 to 100% throughout.
Take `CCN(C(=O)CCSCC1CC1(F)F)c1cn(-c2cc(F)c[n+]([O-])c2)nc1Cl` (stereo not shown) [Compound P92, 3-(3-Chloro-4-(3-(((2,2-difluorocyclopropyl)methyl)thio)-N-ethylpropanamido)-1H-pyrazol-1-yl)-5-fluoropyridine 1-oxide]: the mortality at 200 ppm in test [1] and in test [2] was 80 to 100% each time.
Consider `CCN(C(=O)CC[S+]([O-])CCCC(F)(F)F)c1cn(-c2cc(F)c[n+]([O-])c2)nc1Cl` (stereo not shown) [Compound P99, 3-(3-Chloro-4-(N-ethyl-3-((4,4,4-trilluorobutyl)sulfinyl)propanamido)-1H-pyrazol-1-yl)-5-fluoropyridine 1-oxide], for which the mortality at 200 ppm in test [1] and in test [2] was 80 to 100% each time.
On to `CCN(C(=O)CCSCC1CC1(F)F)c1cn(-c2ccc[n+]([O-])c2)nc1Cl` (stereo not shown) [Compound P48, 3-(3-Chloro-4-(3-(((2,2-difluorocyclopropyl)methyl)thio)-N-ethylpropanamido)-1H-pyrazol-1-yl)pyridine 1-oxide], for which the mortality at 200 ppm in test [1] and in test [2] was 80 to 100% in each case.
As to `CCN(C(=O)CCSCC(F)(F)F)c1cn(-c2ccc[n+]([O-])c2)nc1Cl` [Compound P50, 3-(3-chloro-4-(N-ethyl-3-((2,2,2-trifluoroethyl)thio)propanamido)-1H-pyrazol-1-yl)pyridine 1-oxide], the mortality at 200 ppm in test [1] and in test [2] was 80 to 100% each time.
Regarding `CCN(C(=O)C(C)CS(C)(=O)=O)c1cn(-c2ccc[n+]([O-])c2)nc1Cl` (stereo not shown) [Compound F12, 3-(3-Chloro-4-(N-ethyl-2-methyl-3-(methylsulfonyl)propanamido)-1H-pyrazol-1-yl) 1-oxide], the mortality at 200 ppm in test [1] and in test [2] was 80 to 100% each time.
For `CCN(C(=O)CCSCCC(F)(F)F)c1cn(-c2ccc[n+]([O-])c2)nc1Cl` [Compound F5, 3-(3-chloro-4-(N-ethyl-3-((3,3,3-trifluoropropyl)thio)propanamido)-1H-pyrazol-1-yl)pyridine 1-oxide], the mortality at 200 ppm in test [1] and in test [2] was 80 to 100% throughout.
Turning to `C#CCN(C(=O)CC[S+]([O-])CC1CC1(F)F)c1cn(-c2ccc[n+]([O-])c2)nc1Cl` (stereo not shown) [Compound P66, 3-(3-Chloro-4-(3-(((2,2-difluorocyclopropyl)methyl)sulfinyl)-N-(prop-2-yn-1-yl)propanamido)-1H-pyrazol-1-yl)pyridine 1-oxide], the mortality at 200 ppm in test [1] and in test [2] was 80 to 100% throughout.
Consider `C#CCN(C(=O)CC[S+]([O-])CCCC(F)(F)F)c1cn(-c2ccc[n+]([O-])c2)nc1Cl` (stereo not shown) [Compound P72, 3-(3-Chloro-4-(N-(prop-2-yn-1-yl)-3-((4,4,4-trifluorobutyl)sulfinyl)propanamido)-1H-pyrazol-1-yl)pyridine 1-oxide], for which the mortality at 200 ppm in test [1] and in test [2] was 80 to 100% throughout.
`CCN(C(=O)C(C)C[S+]([O-])CCC(F)(F)F)c1cn(-c2cc(F)c[n+]([O-])c2)nc1Cl` (stereo not shown) [FA6, 3-(3-Chloro-4-(N-ethyl-2-methyl-3-((3,3,3-trifluoropropyl)sulfinyl)propanamido)-1H-pyrazol-1-yl)-5-fluoropyridine 1-oxide]: the mortality at 200 ppm in test [1] and in test [2] was 80 to 100% each time.
Consider `CN(C(=O)CCSCCCC(F)(F)F)c1cn(-c2ccc[n+]([O-])c2)nc1Cl` [Compound P62, 3-(3-Chloro-4-(N-methyl-3-((4,4,4-trifluorobutyl)thio)propanamido)-1H-pyrazol-1-yl)pyridine 1-oxide], for which the mortality at 200 ppm in test [1] and in test [2] was 80 to 100% each time.
As for `CCNc1cn(-c2cc(F)c[n+]([O-])c2)nc1Cl` [CA4, 3-(3-Chloro-4-(ethylamino)-1H-pyrazol-1-yl)-5-fluoropyridine 1-oxide], the mortality at 200 ppm in test [1] and in test [2] was 0 to 80% in each case.
Take `C#CCNc1cn(-c2ccc[n+]([O-])c2)nc1Cl` [CA1, 3-(3-Chloro-4-(prop-2-yn-1-ylamino)-1H-pyrazol-1-yl)pyridine 1-oxide]: the mortality at 200 ppm in test [1] and in test [2] was 0 to 80% throughout.
As for `CCN(C(=O)CC[S+]([O-])CC1CC1(F)F)c1cn(-c2cc(F)c[n+]([O-])c2)nc1Cl` (stereo not shown) [Compound P93, 3-(3-Chloro-4-(3-(((2,2-difluorocyclopropyl)methyl)sulfinyl)-N-ethylpropanamido)-1H-pyrazol-1-yl)-5-fluoropyridine 1-oxide], the mortality at 200 ppm in test [1] and in test [2] was 80 to 100% in each case.
`CCNc1cn(-c2ccc[n+]([O-])c2)nc1Cl` [Compound C1, 3-(3-chloro-4-(ethylamino)-1H-pyrazol-1-yl)pyridine 1-oxide]: the mortality at 200 ppm in test [1] and in test [2] was 0 to 80% in each case.
For `CCN(C(=O)CC[S+]([O-])CCC(F)(F)F)c1cn(-c2ccc[n+]([O-])c2)nc1C` (stereo not shown) [Compound P19, 3-(4-(N-Ethyl-3-((3,3,3-trilluoropropyl)sulfinyl)propanamido)-3-methyl-1H-pyrazol-1-yl)pyridine 1-oxide], the mortality at 200 ppm in test [1] and in test [2] was 80 to 100% each time.
